The text below walks through data of patent publication US5475132A, “Antifungal agents based on amides containing a phenyl group” (Rhone-Poulenc Agrochimie, priority 1988, dated 1995).

Structures are written as SMILES.

The assay relates to Phytophthora citrophthora. Briefly: Example B3: action on phytopathogenic soil fungi, growth on agar in Petri dishes. The format is cell-based. Conditions: 120 h, 30 ppm, agar medium, 22° C., 5 days, read-out: inhibition of the development of the fungus.
Consider `COc1ccc(-c2c(C(=O)N3CCOCC3)sc3ccc(NC(C)=O)cc23)cc1OC` [Compound 115], for which the inhibition at 30 ppm is at least 80%. The figure for `COc1ccc(-c2nc(-c3ccc(Cl)cc3)ccc2C(=O)N(C)CC2CCCO2)cc1OC` (stereo not drawn) [Compound 381] is at least 80%; for `COc1ccc(-c2nc(-c3ccc(C#N)cc3)ccc2C(=O)N2CCOCC2)cc1OC` [Compound 382] it is at least 80%; for `COc1ccc(-c2nc(-c3ccccc3C)ccc2C(=O)N2CCOCC2)cc1OC` [Compound 391] it is at least 80%. In the case of `CCN(C)C(=O)c1sc2ccccc2c1-c1ccc(OC)c(OC)c1` [Compound 150], the inhibition at 30 ppm is at least 80%.

`CCCN(C)C(=O)c1ccc(-c2ccccc2)nc1-c1ccc(OC)c(OC)c1` [Compound 365]: the inhibition at 30 ppm was at least 80%. `COc1ccc(-c2cc(-c3ccc(F)cc3)ccc2C(=O)N2CCOCC2)cc1OC` [Compound 201, 2-(3,4-Dimethoxyphenyl)-4-(4-fluorophenyl)-1-morpholinocarbonylbenzene]: the inhibition at 30 ppm was at least 80%.

For `COCCN(C)C(=O)c1sc2ccccc2c1-c1ccc(OC)c(OC)c1` [Compound 158], the inhibition at 30 ppm is at least 80%. As to `COc1ccc(-c2c(C(=O)N3CCOCC3)sc3ccc(Cl)cc23)cc1OC` [Compound 113], the inhibition at 30 ppm was at least 80%. As for `COc1ccc(-c2c(C(=O)N3CCOCC3)sc3ccc(NC(=O)c4ccc(Cl)cc4)cc23)cc1OC` [Compound 102, 2-(4-Morpholinocarbonyl)-5-(4-chlorobenzoylamino)-3-(3,4-dimethoxyphenyl)benzothiophene], the inhibition at 30 ppm was at least 80%. Then `COc1ccc(-c2cc(-c3ccc(C)cc3)ccc2C(=O)N(C)C)cc1OC` [Compound 217], with at least 80%; and `COc1ccc(-c2c(C(=O)N3CCOCC3)cnn2-c2ccc(Cl)cc2)cc1OC` [Compound 608, 2-(4-Chlorophenyl)-3-(3,4-dimethoxyphenyl)-4-(morpholinocarbonyl)pyrazole], with at least 80%; and `C=C(C)c1ccc(C(=O)N(CC)CC)c(-c2ccc(OC)c(OC)c2)c1` [Compound 214], with at least 80%.

In the case of `COc1ccc(-c2cc(-c3ccc(C)cc3)ccc2C(=O)N(C)CCO)cc1OC` [Compound 216], the inhibition at 30 ppm is at least 80%. As for `COc1ccc(-c2nc(SCc3ccc(Cl)cc3)ncc2C(=O)N2CCOCC2)cc1OC` [Compound 435], the inhibition at 30 ppm was at least 80%. For the molecule `COc1ccc(-c2nc(Oc3ccccc3C)ncc2C(=O)N2CCOCC2)cc1OC` [Compound 440], the inhibition at 30 ppm was at least 80%.

On to `COc1ccc(-c2c(C(=O)N3CCCC3)sc3ccccc23)cc1OC` [Compound 154], for which the inhibition at 30 ppm was at least 80%.

Regarding `COc1ccc(-c2c(Br)cccc2C(=O)N2CCOCC2)cc1OC` [Compound 223], the inhibition at 30 ppm was at least 80%.

As to `COc1ccc(-c2nc(-c3ccc(Br)cc3)ccc2C(=O)N(C)CCO)cc1OC` [Compound 380], the inhibition at 30 ppm was at least 80%. The figure for `COc1ccc(-c2c(C(=O)N3CCOCC3)cc(-c3ccc(Cl)cc3)n2C)cc1OC` [Compound 619] is at least 80%. With `COc1ccc(-c2c(C(=O)N3CCOCC3)sc3ccc(-c4ccsc4)cc23)cc1OC` [Compound 134], the inhibition at 30 ppm is at least 80%.

Regarding `COc1ccc(-c2c(C(=O)N(C)CCO)sc3ccccc23)cc1OC` [Compound 156], the inhibition at 30 ppm was at least 80%. In the case of `COc1ccc(-c2c(C(=O)N3CCOCC3)sc3c(NC(=O)C(F)(F)F)cccc23)cc1OC` [Compound 131], the inhibition at 30 ppm is at least 80%. Take `CCN(CC)C(=O)c1ccc(-c2ccccc2)nc1-c1ccc(OC)c(OC)c1` [Compound 388]: the inhibition at 30 ppm was at least 80%.

Regarding `C=CCN(C)C(=O)c1ccc(-c2ccccc2)nc1-c1ccc(OC)c(OC)c1` [Compound 359], the inhibition at 30 ppm is at least 80%. For the molecule `C=CCN(C)C(=O)c1ccc(-c2ccc(Cl)cc2)nc1-c1ccc(OC)c(OC)c1` [Compound 386], the inhibition at 30 ppm was at least 80%. For `COc1ccc(-c2cc(-c3ccc4c(c3)OCO4)ccc2C(=O)N2CCOCC2)cc1OC` [Compound 239], the inhibition at 30 ppm is at least 80%. For `COc1ccc(-c2nc(Sc3ccc(Cl)cc3)ncc2C(=O)N2CCOCC2)cc1OC` [Compound 436], the inhibition at 30 ppm was at least 80%. Regarding `COCCN(C)C(=O)c1ccc(-c2ccsc2)nc1-c1ccc(OC)c(OC)c1` [Compound 3117], the inhibition at 30 ppm is at least 80%. The figure for `COc1ccc(-c2nc(-c3ccccc3)ccc2C(=O)N(C)CCO)cc1OC` [Compound 395] is at least 80%.

Regarding `COc1ccc(-c2cc(-c3ccccc3)ccc2C(=O)N2CCOCC2)cc1OC` [Compound 202], the inhibition at 30 ppm was at least 80%. Take `COc1ccc(-c2nc(-c3ccccc3)ccc2C(=O)N2CCOCC2)cc1OC` [Compound 301, N-[2-(3,4-dimathoxyphenyl)-6-phenylnicotinoyl]morpholine]: the inhibition at 30 ppm was at least 80%.

Take `COc1ccc(-c2nc(-c3ccccc3)ccc2C(=O)N(C)CCOC(C)=O)cc1OC` [Compound 396]: the inhibition at 30 ppm was at least 80%. For the molecule `COc1ccc(-c2nc(-c3cccc(C(F)(F)F)c3)ncc2C(=O)O)cc1OC` [Compound 426], the inhibition at 30 ppm was at least 80%. Regarding `COc1ccc(-c2c(C(=O)N3CCOCC3)oc3ccccc23)cc1OC` [Compound 137], the inhibition at 30 ppm was at least 80%.

Regarding `COc1ccc(-c2nc(-c3ccccc3)ccc2C(=O)N(C)C(C)C)cc1OC` [Compound 360], the inhibition at 30 ppm was at least 80%. With `COc1ccc(-c2ccc(C(=O)N3CCOCC3)c(-c3ccc(OC)c(OC)c3)c2)cc1OC` [Compound 234], the inhibition at 30 ppm was at least 80%. On to `COc1ccc(C2=C(C(=O)N3CCOCC3)C(O)c3ccccc32)cc1OC` (stereo not drawn) [Compound 110, 1-(3,4-Dimethoxyphenyl)-2-morpholinocarbonyl-3-hydroxyindene], for which the inhibition at 30 ppm is at least 80%. Then `COc1ccc(-c2nc(-c3ccc4ccccc4c3)ccc2C(=O)N2CCOCC2)cc1OC` [Compound 3115], with at least 80%; and `COc1ccc(-c2nc(-c3ccc(F)cc3)c(C)cc2C(=O)N2CCOCC2)cc1OC` [Compound 368], with at least 80%. With `COc1ccc(-c2nc(-c3ccc(Cl)cc3)ccc2C(=O)N(C)CC#N)cc1OC` [Compound 363], the inhibition at 30 ppm was at least 80%. Regarding `CCN(C)C(=O)c1ccc(-c2ccc(C)cc2)cc1-c1ccc2c(c1)OCO2` [Compound 230], the inhibition at 30 ppm was at least 80%. Then `COc1ccc(-c2nc(Oc3ccc(Cl)c(C)c3)ncc2C(=O)N2CCOCC2)cc1OC` [Compound 441], with at least 80%. As to `COc1ccc2c(c1)CC(C(=O)N1CCOCC1)=C2c1ccc(OC)c(OC)c1` [Compound 111, 2-Morpholinocarbonyl-3-(3,,4-dimethoxyphenyl)-6-mehoxyindene], the inhibition at 30 ppm is at least 80%. The figure for `CCN(C)C(=O)c1ccc(-c2ccsc2)nc1-c1ccc(OC)c(OC)c1` [Compound 3118] is at least 80%; for `COc1ccc(-c2c(C(=O)N3CCOCC3)sc3c(F)cccc23)cc1OC` [Compound 122] it is at least 80%. Then `COc1ccc(-c2cc(-c3ccc(C)cc3)ccc2C(=O)N2CCOCC2)cc1OC` [Compound 203], with at least 80%; and `CCN(CC)C(=O)c1cnc(-c2ccc(Cl)c(Cl)c2)nc1-c1ccc(OC)c(OC)c1` [Compound 420], with at least 80%. For the molecule `CCN(C)C(=O)c1cnc(-c2cccc(C(F)(F)F)c2)nc1-c1ccc(OC)c(OC)c1` [Compound 428], the inhibition at 30 ppm is at least 80%. `COCC1CCCN1C(=O)c1sc2ccccc2c1-c1ccc(OC)c(OC)c1` (stereo not drawn) [Compound 163]: the inhibition at 30 ppm is at least 80%.

As to `COc1ccc(-c2nc(-c3cccc(C(F)(F)F)c3)ncc2C(=O)N2CCOCC2)cc1OC` [Compound 425], the inhibition at 30 ppm was at least 80%.

In the case of `O=C(c1ccc(Br)cc1-c1ccc2c(c1)OCO2)N1CCOCC1` [Compound 224], the inhibition at 30 ppm was at least 80%. Turning to `CCN(C)C(=O)c1cnc(-c2ccccc2)nc1-c1ccc(OC)c(OC)c1` [Compound 415], the inhibition at 30 ppm was at least 80%.

For the molecule `COc1ccc(-c2c(C(=O)N3CCCC(OC)C3)sc3ccccc23)cc1OC` (stereo not drawn) [Compound 166], the inhibition at 30 ppm was at least 80%. On to `COc1ccc(-c2nc(Sc3cccc(Cl)c3)ncc2C(=O)N2CCOCC2)cc1OC` [Compound 445], for which the inhibition at 30 ppm is at least 80%.

For the molecule `COc1ccc(-c2cc(C=C(C)C)ccc2C(=O)N2CCOCC2)cc1OC` [Compound 235], the inhibition at 30 ppm was at least 80%. The figure for `C=C(C)c1ccc(C(=O)N(C)CC)c(-c2ccc(OC)c(OC)c2)c1` [Compound 212] is at least 80%; for `COc1ccc(-c2nc(-c3ccc(Cl)cc3)ccc2C(=O)N(C)CCOC(C)=O)cc1OC` [Compound 397] it is at least 80%. As for `CCN(C)C(=O)c1ccc(-c2ccc(C)cc2)cc1-c1ccc(OC)c(OC)c1` [Compound 215], the inhibition at 30 ppm is at least 80%.

For the molecule `COc1ccc(-c2nc(Sc3ccc(Cl)c(Cl)c3)ncc2C(=O)N2CCOCC2)cc1OC` [Compound 450], the inhibition at 30 ppm was at least 80%. For the molecule `COc1ccc(-c2c(C(=O)N3CCOCC3)sc3cc(Cl)ccc23)cc1OC` [Compound 125], the inhibition at 30 ppm was at least 80%. As for `COc1ccc(-c2c(C(=O)N3CCOCC3)sc3cccc(Cl)c23)cc1OC` [Compound 128], the inhibition at 30 ppm is at least 80%. On to `CCN(C)C(=O)c1ccc(Br)cc1-c1ccc(OC)c(OC)c1` [Compound 206], for which the inhibition at 30 ppm was at least 80%.

For the molecule `COc1ccc(-c2c(C(=O)N3CCCCC3CO)sc3ccccc23)cc1OC` (stereo not drawn) [Compound 157], the inhibition at 30 ppm was at least 80%. On to `COCCN(C)C(=O)c1ccc(Br)cc1-c1ccc(OC)c(OC)c1` [Compound 204], for which the inhibition at 30 ppm was at least 80%. Take `C=C(C)c1ccc2sc(C(=O)N3CCOCC3)c(-c3ccc(OC)c(OC)c3)c2c1` [Compound 105, 2-(4-Morpholinocarbonyl)-5-(propen-2-yl)-3-(3,4-dimethoxyphenyl)benzothiophene]: the inhibition at 30 ppm was at least 80%.
